# Assay results as given in US20260184663A1, “INDENE COMPOUNDS, PHARMACEUTICAL COMPOSITIONS THEREOF, AND THEIR THERAPEUTIC APPLICATIONS” (NucMito Pharmaceuticals co. Ltd., priority 2022, published 2026).
# Key:
# Format in all cases: cell-based
# HepG2 (liver cancer) = experiment: Antiproliferative activity (CCK-8 cell viability), HepG2; conditions: Homo sapiens, 72 h, read-out: Antiproliferative activity in cancerous cells, HepG2 (inhibition of cell growth); for inhibition at 3.3 µM: Compound concentration: 3.3 μM; for inhibition at 10 µM: Compound concentration: 10 μM
# Outline: (§1)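 Growth inhibition graded in bands from percent viability against DMSO vehicle, read as CCK-8 absorbance at 450 nm. Compound tested at 3.3, 10 or 30 μM for 72 h, 37 °C; media contained 10% FBS: DMEM for HepG2/SW480, MEM for HeLa, F-12K for A549.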
# [1] = tested on: A549 (lung adenocarcinoma); experiment: Antiproliferative activity (CCK-8 cell viability), A549; conditions: Homo sapiens, 72 h, read-out: Antiproliferative activity in cancerous cells, A549 (inhibition of cell growth); for inhibition at 3.3 µM: Compound concentration: 3.3 μM; for inhibition at 10 µM: Compound concentration: 10 μM
# Outline: as §1
# [2] = tested on: alpha-smooth muscle actin (α-SMA); experiment: Inhibition of TGF-β induced expression of alpha-smooth muscle actin (α-SMA) in CFSC cells (western blot); conditions: compound at 10 μM, TGF-β (10 ng/mL), 24 hours, band intensity vs TGF-β only
# Outline: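 CFSC hepatic stellate cells in serum-free DMEM treated 24 h at 37 °C with compound at 10 μM plus TGF-β (10 ng/mL). α-SMA measured by Western blot with β-actin, ECL detection, densitometry. Percent inhibition is decrease in band intensity versus TGF-β-only cells.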
# [3] = tested on: B16F10 (malignant melanoma); experiment: Antiproliferative activity (CCK-8 cell viability), B16F10; conditions: Mus musculus, 72 h, read-out: Antiproliferative activity in cancerous cells, B16F10 (inhibition of cell growth); for inhibition at 3.3 µM: B16-F10, Compound concentration: 3.3 μM; for inhibition at 10 µM: B16-F10, Compound concentration: 10 μM
# Outline: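 Cell growth inhibition was measured in B16F10 malignant melanoma cells with a Cell Counting Kit-8 viability assay. Cells were maintained in DMEM plus 10% fetal bovine serum, seeded at 2,000-5,000 cells/well in 96-well plates, and treated for 72 h at 37° C. Viability was expressed relative to DMSO-treated vehicle control wells.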
# SW480 (colon cancer) = experiment: Antiproliferative activity (CCK-8 cell viability), SW480; conditions: Homo sapiens, 72 h, read-out: Antiproliferative activity in cancerous cells, SW480 (inhibition of cell growth); for inhibition at 3.3 µM: Compound concentration: 3.3 μM; for inhibition at 10 µM: Compound concentration: 10 μM
# Outline: as §1
# [4] = tested on: MDA-MB-231 (breast cancer); experiment: Antiproliferative activity (CCK-8 cell viability), MDA-MB-231; conditions: Homo sapiens, 72 h, read-out: Antiproliferative activity in cancerous cells, MDA-MB-231 (inhibition of cell growth); for inhibition at 3.3 µM: Compound concentration: 3.3 μM; for inhibition at 10 µM: Compound concentration: 10 μM
# Outline: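 Growth inhibition of human MDA-MB-231 breast cancer cells was assessed with a Cell Counting Kit-8. Cells cultured in DMEM plus 10% FBS were seeded at 2,000-5,000 cells/well, treated after attachment, and kept 72 h at 37° C. CCK-8 solution (10 μL) was added for 4 h, and absorbance at 450 nm was compared with DMSO-treated controls.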
# HeLa (cervical cancer) = experiment: Antiproliferative activity (CCK-8 cell viability), HeLa; conditions: Homo sapiens, 72 h, read-out: Antiproliferative activity in cancerous cells, HELA (inhibition of cell growth); for inhibition at 3.3 µM: Compound concentration: 3.3 μM; for inhibition at 10 µM: Compound concentration: 10 μM
# Outline: as §1
# [5] = tested on: A431 (epidermoid carcinoma); experiment: Antiproliferative activity (CCK-8 cell viability), A431; conditions: Homo sapiens, 72 h, read-out: Antiproliferative activity in cancerous cells, A431 (inhibition of cell growth); for inhibition at 3.3 µM: A-431, Compound concentration: 3.3 μM; for inhibition at 10 µM: A-431, Compound concentration: 10 μM
# Outline: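 This growth inhibition assay used A431 cells maintained in Dulbecco's modified Eagle's medium plus 10% fetal bovine serum. Cells were seeded in 96-well plates, treated with compound for 72 h at 37° C., and then given 10 μL CCK-8 solution. After a further 4 h, absorbance was read at 450 nm.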
Compound,inhibition at 3.3 µM (HepG2 (liver cancer)),inhibition at 10 µM (HepG2 (liver cancer)),inhibition at 3.3 µM [1],inhibition at 10 µM [1],inhibition at 10 µM [2],inhibition at 3.3 µM [3],inhibition at 10 µM [3],inhibition at 3.3 µM (SW480 (colon cancer)),inhibition at 10 µM (SW480 (colon cancer)),inhibition at 3.3 µM [4],inhibition at 10 µM [4],inhibition at 3.3 µM (HeLa (cervical cancer)),inhibition at 10 µM (HeLa (cervical cancer)),inhibition at 3.3 µM [5],inhibition at 10 µM [5]
"CC1=C(CC(=O)O)c2ccc(F)c(F)c2/C1=C\c1cccc(Oc2ccccc2)c1 [C23, (Z)-2-(6,7-Difluoro-2-methyl-1-(3-phenoxybenzylidene)-1H-inden-3-yl)acetic acid]",< 30%,< 30%,< 30%,< 30%,< 30%,30 to 50%,≥ 50%,< 30%,< 30%,≥ 50%,≥ 50%,30 to 50%,≥ 50%,< 30%,< 30%
"O=C(O)CC1=C(Cc2ccc(Oc3ccc(F)cc3)cc2)/C(=C/c2ccc(N3CCOCC3)cc2)c2ccc(F)cc21 [A102, (Z)-2-(5-Fluoro-2-(4-(4-fluorophenoxy)benzyl)-1-(4-morpholinobenzylidene)-1H-inden-3-yl)acetic acid]",≥ 50%,≥ 50%,≥ 50%,≥ 50%,> 80%,≥ 50%,≥ 50%,≥ 50%,≥ 50%,≥ 50%,≥ 50%,≥ 50%,≥ 50%,≥ 50%,≥ 50%
"COc1ccc2c(c1)/C(=C\c1ccc(Oc3ccc(F)cc3)cc1)C(C)=C2CC(=O)O [C1, (Z)-2-(1-(4-(4-Fluorophenoxy)benzylidene)-6-methoxy-2-methyl-1H-inden-3-yl)-acetic acid]",< 30%,< 30%,< 30%,< 30%,> 80%,30 to 50%,≥ 50%,≥ 50%,≥ 50%,≥ 50%,≥ 50%,≥ 50%,≥ 50%,30 to 50%,≥ 50%
"O=C(O)CC1=C(Cc2ccc(C(F)(F)F)cc2)/C(=C/c2ccc(Oc3ccc(F)cc3)cc2)c2ccc(F)cc21 [C11, (Z)-2-(5-Fluoro-1-(4-(4-fluorophenoxy)benzylidene)-2-(4-(trifluoromethyl)-benzyl)-1H-inden-3-yl)acetic acid]",≥ 50%,≥ 50%,≥ 50%,≥ 50%,> 80%,≥ 50%,≥ 50%,≥ 50%,≥ 50%,≥ 50%,≥ 50%,≥ 50%,≥ 50%,≥ 50%,≥ 50%
"O=C(O)CC1=C(Cc2ccc(Oc3ccc(F)cc3)cc2)/C(=C/c2ccc(C(F)(F)F)cc2)c2ccc(F)cc21 [A108, (Z)-2-(5-Fluoro-2-(4-(4-fluorophenoxy)benzyl)-1-(4-(trifluoromethyl)-benzylidene)-1H-inden-3-yl)acetic acid]",< 30%,< 30%,≥ 50%,≥ 50%,> 80%,≥ 50%,≥ 50%,< 30%,≥ 50%,≥ 50%,≥ 50%,< 30%,≥ 50%,≥ 50%,≥ 50%
